Test results reported in patent publication US20260356854A1, “Prodrugs of Varenicline and Compounds Containing Vulnerable Amines” (Pfizer Inc., priority 2022, published 2026).
Read-outs that look alike come from different tables or passages of the source. Values belong to the molecule of their own block, whether it stands above or below them.

What was measured:
[1] = tested on: chronic cigarette smokers; conditions: total dose of 1 mg per day or 2 mg per day; six weeks; initial evidence; cited from earlier work
[2] = tested on: chronic cigarette smokers; conditions: Study 2, cited from earlier work; for co-confirmed continuous abstinence during weeks 9 through 12: placebo 12%; for continuously abstinent from one week after TQD through the end of treatment: placebo 8%
[3] = tested on: chronic cigarette smokers; conditions: Study 3, patient-directed 0.5 mg QD to 1 mg BID, cited from earlier work
[4] = tested on: chronic cigarette smokers; conditions: Study 4, cited from earlier work
[5] = tested on: chronic cigarette smokers; conditions: Study 5, cited from earlier work
[6] = Weight loss on heating (solid-state characterization); type: physicochemical; conditions: up to 150 °C; crystalline anhydrous form
Procedure: (§1) Compound 1 is a crystalline anhydrous solid form as represented by its PXRD pattern (FIG. 1). […] Compound 1 has a melting onset of ~227 °C and is non-hygroscopic, i.e., less than 0.2% moisture uptake at 90% RH/25 °C.

[7] = Moisture uptake / hygroscopicity (solid-state characterization); type: physicochemical; conditions: 90% RH/25 °C; crystalline anhydrous form
Procedure: as §1

[8] = Study to assess the bioequivalence of Compound 1 and varenicline tartrate (oral plasma concentrations); type: in vivo, monkey (non-human primates); conditions: monkey, capsule, 0.04 mg eq/kg
Procedure: FIG. 3 is a graph of the mean monkey plasma concentrations of varenicline following an oral dose of 0.04 mg eq/kg of prodrug (Compound 1) and varenicline tartrate.
A prodrug of varenicline (Compound 1) prepared as described above in Example 1 was orally dosed in capsule form to non-human primates to assess bioequivalence to varenicline tartrate API (Chantix). FIG. 3 is a graph of the mean monkey plasma concentrations of varenicline following an oral dose of 0.04 mg eq/kg of prodrug (Compound 1) and 0.04 mg eq/kg of varenicline tartrate.

[9] = Nitrosamine formation under nitrosating conditions in solution (UPLC-MS); type: physicochemical; conditions: for 10 min. N—NO Level: area % by UV; for 2 h N—NO Level / 42 h N—NO Level: area % by UV (210 nm)
Procedure: A study was conducted to determine whether varenicline prodrug (Compound 1) forms nitrosamine under nitrosating conditions in solution as compared to varenicline. Regular UPLC-MS detection was utilized. Varenicline free base (0.1 mmol), varenicline tartrate salt (0.1 mmol), and Compound 1 (0.1 mmol) were added to separate vials. THF (2.2 ml) was added to each vial. NaNO2 (0.1 eq) and AcOH (0.1 eq) (added as a 0.1 wt % NaNO2 solution with equivalent molar of acetic acid was also added to each vial to provide a total volume of ~2.5 ml/vial.

[10] = varenicline 1 mg BID compared to bupropion SR or placebo
[11] = nitrosating conditions: NaNO2 0.1 eq, AcOH 0.1 eq, THF, 10 min
[12] = nitrosating conditions: NaNO2 0.1 eq, AcOH 0.1 eq, THF

Compound: Cl.c1cnc2cc3c(cc2n1)C1CNCC3C1 [varenicline, 5,8,14-triazatetracyclo[10.3.1.0^2,11.0^4,9]hexadeca-2(11),3,5,7,9-pentaene]
- effectiveness as an aid to smoking cessation (in words) [1]: effective as an aid to smoking cessation
- co-confirmed continuous abstinence during weeks 9 through 12 ([2]; 1 mg per day (0.5 mg BID)): Forty five
- continuously abstinent from one week after TQD through the end of treatment ([2]; 1 mg per day): 31%
- co-confirmed continuous abstinence during weeks 9 through 12 ([2]; 2 mg per day (1 mg BID)): 51%
- continuously abstinent from one week after TQD through the end of treatment ([2]; 2 mg per day): 31%
- continuously abstinent from one week after TQD through the end of treatment ([3]; placebo 9%): 29%
- co-confirmed continuous abstinence during weeks 9 through 12 ([3]; placebo 12%): 40%
- rate of co-confirmed abstinence during weeks 9 through 12, comparison in words [4, 10]: superior
- continuously abstinent from one week after TQD through the end of treatment ([4]; varenicline 1 mg BID, placebo 12%): 29%
- co-confirmed abstinence during weeks 9 through 12 ([4]; varenicline 1 mg BID, placebo 17%): 44%
- rate of co-confirmed abstinence during weeks 9 through 12, comparison in words [5, 10]: superior
- continuously abstinent from one week after TQD through the end of treatment ([5]; varenicline 1 mg BID, placebo 11%): 29%
- co-confirmed abstinence during weeks 9 through 12 ([5]; varenicline 1 mg BID, placebo 18%): 44%

Compound: Cc1ncc2c(c1O)[C@H](N1C[C@H]3C[C@@H](C1)c1cc4nccnc4cc13)OC2 [Compound 1, (R)-6-methyl-1-((6R,10S)-6,7,9,10-tetrahydro-8H-6,10-methanoazepino[4,5-g]quinoxalin-8-yl)-1,3-dihydrofuro[3,4-c]pyridin-7-ol]
- weight loss [6]: less than 0.1%
- hygroscopicity (in words) [7]: non-hygroscopic
- moisture uptake [7]: less than 0.2%
- prodrug remaining in the systemic circulation ([8]; analyte prodrug): no prodrug remaining in the systemic circulation
- bioequivalence (plasma concentration over time) of the varenicline released from the prodrug ([8]; analyte varenicline, vs varenicline tartrate 0.04 mg eq/kg): comparable to varenicline tartrate
- nitrosamine formation under nitrosating conditions (in words) ([9]; as compared to varenicline tartrate): does not form nitrosamines
- 10 min. N—NO Level [9, 11]: Not detected
- 2 h N—NO Level [9, 12]: Not detected.
- 42 h N—NO Level [9, 12]: Not detected

- 10 min. N—NO Level (by MS) ([9]; nitrosating conditions: NaNO2 0.1 eq, AcOH 0.1 eq, THF, 10 min, MS detection): Detectable by MS
- 10 min. N—NO Level [9, 11]: Not detected by UV
- 2 h N—NO Level [9, 12]: 0.83 A %
- 42 h N—NO Level [9, 12]: 5.15 A %
Compound: O=C(O)C(O)C(O)C(=O)O.c1cnc2cc3c(cc2n1)[C@@H]1CNC[C@H]3C1 [Varenicline tartrate]

- 10 min. N—NO Level [9, 11]: Not detected
- 2 h N—NO Level [9, 12]: Not detected
- 42 h N—NO Level [9, 12]: Not detected
Compound: Cl.c1cnc2cc3c(cc2n1)C1CNCC3C1 [Varenicline Free base, 5,8,14-triazatetracyclo [10.3.1.0^2,11.0^4,9]hexadeca-2(11),3,5,7,9-pentaene]
